The values below are quoted from earlier work in US8895756B2, “Bendamustine pharmaceutical compositions” (priority 2005, dated 2014).

For this data set the following is noted: pure tertiary butanol vs pure acetic acid, dimethyl sulfoxide, methylhydroxy, water or TBA/water mixtures; cited from earlier work.

Structures are written as SMILES.

As to `CN(CC(N)=O)C(=O)N(CCCl)N=O` [SarCNU], the “relative stability in solvents” value is listed as “more stable in pure tertiary butanol”.
